Measured values from PubChem BioAssay AID2060509 (Molecular Pharmacology Branch, DTP, NCI, 2025).

Test system: 485176-168-R4-J1-PDC spheroids with HUVEC/MSC, viability
Assay: Anticancer human tumor 485176-168-R4-J1-PDC patient-derived pancreatic adenocarcinoma cell line growth inhibition [GQUAD]
Details: for IC50: curve of first compound; for viability, T/C: stronger effect = lower value
Procedure, shortened: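 Multi-cell-type spheroids of tumor cells with HUVEC and mesenchymal stem cells, treated with drug combinations. Concentrations descend in half-log steps from near clinical Cmax, or from 10 microM where Cmax is unknown; viability read-out.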

[1] = second compound 0.0316 µM, first compound 0.0316 µM
[2] = second compound 0.0316 µM, first compound 0.1 µM
[3] = second compound 0.0316 µM, first compound 0.316 µM
[4] = second compound 0.0316 µM, first compound 1 µM
[5] = second compound 0.0316 µM, first compound 3.16 µM
[6] = second compound 0.0316 µM, first compound 10 µM
[7] = second compound 0.1 µM, first compound 0.0316 µM
[8] = second compound 0.1 µM, first compound 0.1 µM
[9] = second compound 0.1 µM, first compound 0.316 µM
[10] = second compound 0.1 µM, first compound 1 µM
[11] = second compound 0.1 µM, first compound 3.16 µM
[12] = second compound 0.1 µM, first compound 10 µM
[13] = second compound 0.316 µM, first compound 0.0316 µM
[14] = second compound 0.316 µM, first compound 0.1 µM
[15] = second compound 0.316 µM, first compound 0.316 µM
[16] = second compound 0.316 µM, first compound 1 µM
[17] = second compound 0.316 µM, first compound 3.16 µM
[18] = second compound 0.316 µM, first compound 10 µM
[19] = second compound 1 µM, first compound 0.0316 µM
[20] = second compound 1 µM, first compound 0.1 µM
[21] = second compound 1 µM, first compound 0.316 µM
[22] = second compound 1 µM, first compound 1 µM
[23] = second compound 1 µM, first compound 3.16 µM
[24] = second compound 1 µM, first compound 10 µM
[25] = second compound 3.16 µM, first compound 0.0316 µM
[26] = second compound 3.16 µM, first compound 0.1 µM
[27] = second compound 3.16 µM, first compound 0.316 µM
[28] = second compound 3.16 µM, first compound 1 µM
[29] = second compound 3.16 µM, first compound 3.16 µM
[30] = second compound 3.16 µM, first compound 10 µM
[31] = second compound 10 µM, first compound 0.0316 µM
[32] = second compound 10 µM, first compound 0.1 µM
[33] = second compound 10 µM, first compound 0.316 µM
[34] = second compound 10 µM, first compound 1 µM
[35] = second compound 10 µM, first compound 3.16 µM
[36] = second compound 10 µM, first compound 10 µM
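Note: spheroids exposed to compounds for seven days before readout.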
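Throughout, for viability, T/C: percent viability relative to DMSO vehicle control wells as 100%.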

CC(=O)O[C@H]1C(=O)[C@@]2(C)[C@H]([C@H](OC(=O)c3ccccc3)[C@]3(O)C[C@H](OC(=O)[C@H](O)[C@@H](NC(=O)c4ccccc4)c4ccccc4)C(C)=C1C3(C)C)[C@]1(OC(C)=O)CO[C@@H]1C[C@@H]2O + CN(C)c1ccc(Nc2c3ccc(NC(=O)CCN4CCCC4)cc3nc3cc(NC(=O)CCN4CCCC4)ccc23)cc1
IC50 (second compound 0.0316 µM): < 31.6 nM
IC50 (second compound 0.1 µM): < 31.6 nM
IC50 (second compound 0.316 µM): < 31.6 nM
IC50 (second compound 1 µM): < 31.6 nM
IC50 (second compound 3.16 µM): < 31.6 nM
IC50 (second compound 10 µM): < 31.6 nM
viability, T/C [1]: 34.3%
viability, T/C [2]: 14.3%
viability, T/C [3]: 14.3%
viability, T/C [4]: 11.6%
viability, T/C [5]: 11%
viability, T/C [6]: 14.1%
viability, T/C [7]: 31.9%
viability, T/C [8]: 15%
viability, T/C [9]: 14.1%
viability, T/C [10]: 14.9%
viability, T/C [11]: 12%
viability, T/C [12]: 11.3%
viability, T/C [13]: 33.3%
viability, T/C [14]: 15.6%
viability, T/C [15]: 12.9%
viability, T/C [16]: 13.7%
viability, T/C [17]: 11.5%
viability, T/C [18]: 10.9%
viability, T/C [19]: 31%
viability, T/C [20]: 13.3%
viability, T/C [21]: 12.2%
viability, T/C [22]: 14%
viability, T/C [23]: 11.5%
viability, T/C [24]: 9.76%
viability, T/C [25]: 36.9%
viability, T/C [26]: 11.3%
viability, T/C [27]: 16.1%
viability, T/C [28]: 13.6%
viability, T/C [29]: 12.5%
viability, T/C [30]: 11.3%
viability, T/C [31]: 28.3%
viability, T/C [32]: 12.4%
viability, T/C [33]: 13.1%
viability, T/C [34]: 11.5%
viability, T/C [35]: 10.6%
viability, T/C [36]: 12%

C=CC(=O)N1CCN(c2nc(=O)n(-c3c(C)ccnc3C(C)C)c3nc(-c4c(O)cccc4F)c(F)cc23)C(C)C1 (stereo unspecified) + CN(C)c1ccc(Nc2c3ccc(NC(=O)CCN4CCCC4)cc3nc3cc(NC(=O)CCN4CCCC4)ccc23)cc1
IC50 (second compound 0.0316 µM): > 10000 nM
IC50 (second compound 0.1 µM): > 10000 nM
IC50 (second compound 0.316 µM): > 10000 nM
IC50 (second compound 1 µM): > 10000 nM
IC50 (second compound 3.16 µM): > 10000 nM
IC50 (second compound 10 µM): > 10000 nM
viability, T/C [1]: 111%
viability, T/C [2]: 90.2%
viability, T/C [3]: 102%
viability, T/C [4]: 98.1%
viability, T/C [5]: 120%
viability, T/C [6]: 112%
viability, T/C [7]: 88.5%
viability, T/C [8]: 98.3%
viability, T/C [9]: 110%
viability, T/C [10]: 99.5%
viability, T/C [11]: 114%
viability, T/C [12]: 96.6%
viability, T/C [13]: 90.5%
viability, T/C [14]: 95.7%
viability, T/C [15]: 96.2%
viability, T/C [16]: 101%
viability, T/C [17]: 119%
viability, T/C [18]: 120%
viability, T/C [19]: 128%
viability, T/C [20]: 110%
viability, T/C [21]: 94.8%
viability, T/C [22]: 108%
viability, T/C [23]: 125%
viability, T/C [24]: 98.6%
viability, T/C [25]: 108%
viability, T/C [26]: 95.6%
viability, T/C [27]: 90.5%
viability, T/C [28]: 107%
viability, T/C [29]: 114%
viability, T/C [30]: 108%
viability, T/C [31]: 86.2%
viability, T/C [32]: 104%
viability, T/C [33]: 86.6%
viability, T/C [34]: 91.1%
viability, T/C [35]: 88.2%
viability, T/C [36]: 73.1%

CC1COCCN1c1cc(-c2ccnn2C)c2ccnc(-c3ccn[nH]3)c2n1 (stereo unspecified) + Cc1cnc(CNC(=O)c2c(=O)c3ccc(N4CCCN(C)CC4)nc3n3c2sc2ccccc23)cn1
IC50 (second compound 0.0316 µM): < 31.6 nM
IC50 (second compound 0.1 µM): < 31.6 nM
IC50 (second compound 0.316 µM): < 31.6 nM
IC50 (second compound 1 µM): < 31.6 nM
IC50 (second compound 3.16 µM): < 31.6 nM
IC50 (second compound 10 µM): < 31.6 nM
viability, T/C [1]: 40.6%
viability, T/C [2]: 15.9%
viability, T/C [3]: 12.9%
viability, T/C [4]: 8.3%
viability, T/C [5]: 10.7%
viability, T/C [6]: 11.9%
viability, T/C [7]: 22.2%
viability, T/C [8]: 12.2%
viability, T/C [9]: 7.9%
viability, T/C [10]: 11.2%
viability, T/C [11]: 10.8%
viability, T/C [12]: 11.7%
viability, T/C [13]: 18.2%
viability, T/C [14]: 9.35%
viability, T/C [15]: 8.47%
viability, T/C [16]: 7.9%
viability, T/C [17]: 10.6%
viability, T/C [18]: 10.4%
viability, T/C [19]: 12.6%
viability, T/C [20]: 9.48%
viability, T/C [21]: 9.86%
viability, T/C [22]: 8.6%
viability, T/C [23]: 11.5%
viability, T/C [24]: 10.6%
viability, T/C [25]: 15%
viability, T/C [26]: 11.8%
viability, T/C [27]: 10.1%
viability, T/C [28]: 10.4%
viability, T/C [29]: 9.56%
viability, T/C [30]: 9.96%
viability, T/C [31]: 16%
viability, T/C [32]: 11%
viability, T/C [33]: 9.84%
viability, T/C [34]: 9.05%
viability, T/C [35]: 9.12%
viability, T/C [36]: 10.4%
